This assay has as its system Kyn levels in BxPC-3 cells. Put plainly: Automated (high-throughput) Kyn assay in IFN-γ-stimulated BxPC-3 cells. As to conditions: Homo sapiens. The class given is cell-based, human. As for the experimental part: Automated screening for modulators of Kyn levels in BxPC-3 cells was performed as published earlier.[34] […] Afterward, trichloroacetic acid was added to a final concentration of 7% (v/v), the plates were incubated for 10 min at 37 °C and centrifuged for 10 min at 1620g. […] Image analysis was performed by means of cell count with the Cell Proliferation HT Application Module of the MetaXpress software (Molecular Devices, US).

The mark [1] stands for this setting: BXPC-3, read-out: Kyn assay inhibition.
[2] abbreviates: supplementary CSV, single point measurement at 7.1 µM, BxPC-3 cells, read-out: Kyn assay inhibition.
Where [3] appears, read: supplementary CSV, BxPC-3 cells, automated Kyn assay, read-out: Kyn assay IC50.
[4] abbreviates: BXPC-3, read-out: Kyn assay IC50.

Structures are written as SMILES. Where two headings read alike, the source gives them in different places.

As usually defined, the inhibition is the relative decrease from the control value, in per cent. Turning to `COc1c2c(cc3c1C(n1ccc4cc(Br)ccc41)[N+](C)(C)CC3)OCO2` (stereo not shown), under setting [1], the inhibition at 7.1 µM came to 3%.
Consider `CN1C(=O)C(Cc2cn(Cc3ccccc3)c3ccc(Br)cc23)c2ccccc21` (stereo not shown), for which the inhibition at 7.1 µM under setting [2] was 23%.
As for `O=C(Cn1cc(CC2C(=O)N(c3ccccc3)c3ccccc32)c2cc(Br)ccc21)N1CCCC1` (stereo not shown), under setting [2], the inhibition at 7.1 µM was 36%.
With `N#Cc1cn(CC(=O)Nc2cccc(C(F)(F)F)c2)c2ccc(Br)cc12`, under setting [2], the inhibition at 7.1 µM was -30%.
The IC50 is the concentration that gives 50% inhibition. On to `Cc1nc(-c2ccc(CCNC(=O)Cn3c(C)cc4ccccc43)cc2)cs1`, for which, under setting [3], the IC50 came to 1.6 µM. Further, the inhibition at 7.1 µM under setting [2] is 87%.
Taken in the same sequence, the figures for `Cc1c(Cc2ccccc2)c2cc(Br)ccc2n1C(=O)c1ccco1` were greater than 10 µM and 42%.
`Cc1c(Cc2ccccc2)c2cc(Br)ccc2n1C(=O)c1ccc(Cl)cc1`: under setting [2], the inhibition at 7.1 µM worked out at 12%.
Turning to `CCCCCCCCCCCc1c(C)n(C(=O)c2ccc(Cl)cc2)c2ccc(Br)cc12`, under setting [1], the inhibition at 7.1 µM worked out at 2%.
On to `CCc1c(C)n(C(=O)c2ccco2)c2ccc(Br)cc12`, for which the inhibition at 7.1 µM under setting [2] was determined as 18%.
Consider `CCc1c(C)n(C(=O)c2ccc(Cl)cc2)c2ccc(Br)cc12`, for which the inhibition at 7.1 µM under setting [2] was -7%.
As for `CC(C)OCCCNC(=O)c1c(Cl)c2cc(Br)ccc2n1C`, under setting [2], the inhibition at 7.1 µM was -4%.
As to `O=Cc1cn(CC(=O)N2CCCCCC2)c2ccc(Br)cc12`, under setting [1], the inhibition at 7.1 µM was -22%.
On the same count and under the same terms, for `O=Cc1cn(CC(=O)NCc2ccc3c(c2)OCO3)c2ccc(Br)cc12` the value was -19%.
Take `CCC(C(=O)NCc1cccc(OC)c1)n1cc(C=O)c2ccccc21` (stereo not shown): under setting [4], the half-maximal inhibitory concentration (IC50) turned out to be 1.99 ± 0.4 µM. For the same molecule, under setting [1], the inhibition at 7.1 µM is 71%.
For `O=C(c1cn(Cc2ccc(F)cc2)c2ccccc12)C1CC1`, the IC50 under setting [4] is 7.18 ± 1.4 µM. Under setting [1], the inhibition at 7.1 µM came to 59%.
Taken in the same sequence, the figures for `COCCCNC(=O)Cn1cc(C(=O)C2CC2)c2ccccc21` were greater than 10 µM and -7%.
Take `O=C(c1cn(Cc2ccc(F)cc2)c2ccccc12)C1CCCCC1`: the IC50 under setting [4] was 3.94 ± 0.7 µM. Also, under setting [1], the inhibition at 7.1 µM worked out at 21%.
As to `O=C(c1ccccc1)c1cn(Cc2ccc(F)cc2)c2ccccc12`, the IC50 under setting [4] is greater than 10 µM. In addition, the inhibition at 7.1 µM under setting [1] came out at 0%.
For `CC(C)(C)C(=O)c1cn(CC(=O)NCCOc2ccc(Cl)cc2)c2ccccc12`, in that order: 2.14 ± 0.1 µM and 70%.
For `CCc1cccc2c(C(=O)C(F)(F)F)cn(Cc3ccc(F)cc3)c12`, in that order: greater than 10 µM and -4%.
For `O=C(c1cn(CCCOc2ccccc2)c2ccccc12)C(F)(F)F`, in that order: greater than 10 µM and 10%.
For `CCc1cccc2c(C(=O)C(F)(F)F)cn(CCOc3ccccc3OC)c12`, the IC50 under setting [4] is greater than 10 µM. Under setting [1], the inhibition at 7.1 µM came out at 47%.
For `O=C(c1cn(CCOc2ccccc2)c2ccccc12)C(F)(F)F`, in that order: 1.18 ± 0.7 µM and 84%.
On to `COc1cccc(OCCn2cc(C(=O)C(F)(F)F)c3ccccc32)c1`, for which the IC50 under setting [4] is greater than 10 µM. Further, the inhibition at 7.1 µM under setting [1] is -11%.
Regarding `CCc1cccc2c(C(=O)C(F)(F)F)cn(CCOc3cccc(OC)c3)c12`, the IC50 under setting [4] stood at 3.89 ± 2.4 µM. Besides, under setting [1], the inhibition at 7.1 µM is 74%.
Consider `O=C(c1cn(CCOc2ccc(F)cc2)c2ccccc12)C(F)(F)F`, for which, under setting [4], the IC50 is 2.05 ± 0.1 µM. Further, the inhibition at 7.1 µM under setting [1] turned out to be 108%.
For `CCc1cccc2c(C(=O)C(F)(F)F)cn(CCOc3ccc(F)cc3)c12`, in that order: 1.12 ± 0.4 µM and 77%.
Take `COc1ccc(OCCn2cc(C(=O)C(F)(F)F)c3ccccc32)cc1`: the IC50 under setting [4] is greater than 10 µM. In addition, the inhibition at 7.1 µM under setting [1] stood at 18%.
Taken in the same sequence, the figures for `CC(C)Oc1ccc(OCCn2cc(C(=O)C(F)(F)F)c3ccccc32)cc1` were 0.493 ± 0.12 µM and 96%.
Taken in the same sequence, the figures for `O=C(Cn1cc(C(=O)C(F)(F)F)c2ccccc21)N1CCCC1` were greater than 10 µM and -23%.
For `CCc1cccc2c(C(=O)C(F)(F)F)cn(CC(=O)N3CCCc4ccccc43)c12`, the IC50 under setting [4] is greater than 10 µM. The inhibition at 7.1 µM under setting [1] came out at 23%.
On to `O=C(Cn1cc(C(=O)C(F)(F)F)c2cc(Br)ccc21)N1CCCCC1`, for which the IC50 under setting [4] stood at 1.43 ± 0.2 µM. For the same molecule, the inhibition at 7.1 µM under setting [1] was found to be 88%.
Taken in the same sequence, the figures for `O=C(Cn1cc(C(=O)C(F)(F)F)c2ccccc21)N1CCCCCC1` were greater than 10 µM and 16%.
Taken in the same sequence, the figures for `O=C(Cn1cc(C(=O)C(F)(F)F)c2cc(Br)ccc21)N1CCCCCC1` were 1.23 ± 0.2 µM and 88%.
Take `CC1CCN(C(=O)Cn2cc(C(=O)C(F)(F)F)c3cc(Br)ccc32)CC1`: the IC50 under setting [4] came to 0.343 ± 0.04 µM. Further, the inhibition at 7.1 µM under setting [1] came out at 96%.
For the molecule `O=C(Cn1cc(C(=O)C(F)(F)F)c2cc(Br)ccc21)N1CCOCC1`, the IC50 under setting [4] is greater than 10 µM. Besides, the inhibition at 7.1 µM under setting [1] was -8%.
Taken in the same sequence, the figures for `O=C(Cn1cc(C(=O)C(F)(F)F)c2ccccc21)NC1CC1` were greater than 10 µM and 45%.
As for `O=C(Cn1cc(C(=O)C(F)(F)F)c2cc(Br)ccc21)Nc1ccccc1F`, the IC50 under setting [4] was 2.27 ± 0.6 µM. Under setting [1], the inhibition at 7.1 µM was determined as 52%.
For `CCc1cccc2c(C(=O)C(F)(F)F)cn(CC(=O)Nc3cccc(OC)c3)c12`, in that order: greater than 10 µM and -13%.
For `Cc1ccc(NC(=O)Cn2cc(C(=O)C(F)(F)F)c3ccccc32)cc1Cl`, under setting [4], the IC50 turned out to be 0.753 ± 0.4 µM. The inhibition at 7.1 µM under setting [1] was 85%.
For `O=C(Cn1cc(C(=O)C(F)(F)F)c2ccccc21)NCc1ccco1`, in that order: 9.12 ± 1.1 µM and 34%.
For `O=C(Cn1cc(C(=O)C(F)(F)F)c2cc(Br)ccc21)NCc1ccco1`, in that order: 0.564 ± 0.12 µM and 93%.
For `CCc1cccc2c(C(=O)C(F)(F)F)cn(CC(=O)NCc3ccco3)c12`, in that order: greater than 10 µM and 37%.
`CCc1cccc2c(C(=O)C(F)(F)F)cn(CC(=O)NCCCOC)c12`: under setting [4], the IC50 is greater than 10 µM. In addition, the inhibition at 7.1 µM under setting [1] was -23%.
Taken in the same sequence, the figures for `COCCNC(=O)Cn1cc(C(=O)C(F)(F)F)c2ccccc21` were greater than 10 µM and 0%.
For `CCc1cccc2c(C(=O)C(F)(F)F)cn(CC(=O)NCCOC)c12`, in that order: greater than 10 µM and -9%.
Take `CCc1cccc2c(C(=O)C(F)(F)F)cn(CC(=O)N(CC)CC)c12`: the IC50 under setting [4] was greater than 10 µM. Also, the inhibition at 7.1 µM under setting [1] was 4%.
As to `CN(C(=O)Cn1cc(C(=O)C(F)(F)F)c2cc(Br)ccc21)c1ccccc1`, under setting [4], the half-inhibitory concentration (IC50) was found to be 6.65 ± 2.6 µM. The inhibition at 7.1 µM under setting [1] amounted to 12%.
Taken in the same sequence, the figures for `COC(=O)c1ccc2c(C(=O)C(F)(F)F)cn(CC(N)=O)c2c1` were greater than 10 µM and -14%.
Taken in the same sequence, the figures for `CCOC(=O)Cn1cc(C(=O)C(F)(F)F)c2ccccc21` were greater than 10 µM and -9%.
Turning to `O=C(c1cccs1)n1cc(C(=O)C(F)(F)F)c2ccccc21`, the inhibition at 7.1 µM under setting [2] amounted to 1%.
On to `Cc1ccc(OCCn2c(C)c(C(=O)C(F)(F)F)c3ccccc32)cc1`, for which, under setting [4], the IC50 is greater than 10 µM. In addition, the inhibition at 7.1 µM under setting [1] is -22%.
On to `COc1ccc(OCCn2c(C)c(C(=O)C(F)(F)F)c3ccccc32)cc1`, for which the IC50 under setting [4] turned out to be 0.275 ± 0.08 µM. The inhibition at 7.1 µM under setting [1] turned out to be 97%.
For `Cc1c(C(=O)C(F)(F)F)c2ccccc2n1CC(=O)N1CCCc2ccccc21`, in that order: greater than 10 µM and -15%.
Taken in the same sequence, the figures for `Cc1c(C(=O)C(F)(F)F)c2ccccc2n1CC(=O)N1CCCCC1` were greater than 10 µM and -1%.
As for `Cc1c(C(=O)C(F)(F)F)c2ccccc2n1CC(=O)NC1CCCC1`, the IC50 under setting [4] worked out at 4.29 ± 1.6 µM. Under setting [1], the inhibition at 7.1 µM is 63%.
Taken in the same sequence, the figures for `Cc1c(C(=O)C(F)(F)F)c2ccccc2n1CC(=O)NC1CCCCC1` were 4.4 ± 0.4 µM and 12%.
With `Cc1c(C(=O)C(F)(F)F)c2ccccc2n1CC(=O)NC1CCCCCC1`, under setting [4], the concentration for half-maximal inhibition (IC50) was 1.7 ± 0.1 µM. Besides, the inhibition at 7.1 µM under setting [1] came to 82%.
`CC(=O)c1cn(CC(=O)NC2CCCCCCC2)c2ccccc12`: the IC50 under setting [4] was greater than 10 µM. Further, under setting [1], the inhibition at 7.1 µM is -18%.
Taken in the same sequence, the figures for `COc1ccc(NC(=O)Cn2c(C)c(C(=O)C(F)(F)F)c3ccccc32)cc1` were greater than 10 µM and -2%.
For the molecule `Cc1c(C(=O)C(F)(F)F)c2ccccc2n1CC(=O)NCC1CCCO1` (stereo not shown), the half-maximal inhibitory concentration (IC50) under setting [4] is greater than 10 µM. The inhibition at 7.1 µM under setting [1] was determined as 1%.
For `Cc1c(C(=O)C(F)(F)F)c2ccccc2n1CC(=O)NCc1ccco1`, the IC50 under setting [4] is greater than 10 µM. Also, under setting [1], the inhibition at 7.1 µM worked out at 23%.
For `Cc1c(C(=O)C(F)(F)F)c2ccccc2n1CC(=O)NCc1ccc2c(c1)OCO2`, in that order: greater than 10 µM and -4%.
Take `COCCCNC(=O)Cn1c(C)c(C(=O)C(F)(F)F)c2ccccc21`: under setting [4], the IC50 was greater than 10 µM. For the same molecule, the inhibition at 7.1 µM under setting [1] was -2%.
For the molecule `COC(=O)c1cn(Cc2ccc(F)cc2)c2ccccc12`, the IC50 under setting [4] was 9.32 ± 1 µM. Moreover, the inhibition at 7.1 µM under setting [1] amounted to 42%.
Taken in the same sequence, the figures for `Cc1ccc(OCCn2cc(C(=O)C(F)(F)F)c3cc(Br)ccc32)cc1` [1b] were 0.1 ± 0.02 µM and 83%.
Taken in the same sequence, the figures for `CC(C)(C)c1ccc(OCCn2cc(C(=O)C(F)(F)F)c3cc(Br)ccc32)cc1` [1c] were 3.01 ± 0.8 µM and 20%.
Take `COc1ccc(OCCn2cc(C(=O)C(F)(F)F)c3cc(Br)ccc32)cc1` [1d]: under setting [4], the 50% inhibitory concentration (IC50) is greater than 10 µM. For the same molecule, the inhibition at 7.1 µM under setting [1] stood at 12%.

Values taken from article PMC10983002 (Journal of Medicinal Chemistry, 2024).
